Results: patent publication US5053408A, “Hexitol derivatives having vasodilative activity” (Kyowa Hakko Kogyo Co., Ltd., priority 1989, dated 1991)
Counter-ions that a name gives are not always drawn. Like-named read-outs stand apart in the source and are kept apart here.

Assays:
[1] = system: coronary vasospasm model (lysine-vasopressin); assay: Effects on coronary vasospasm model (lysine-vasopressin test), inhibition of ST-segment elevation; format: in vivo, male Wistar rats; settings: Rattus norvegicus
male dd-mice = assay: Acute toxicity; settings: mouse, in vivo, 10080 min; for MLD i.p.: ip; for MLD p.o.: po
Procedure: The compounds were orally administered and intraperitoneally administered to male dd-mice weighing 20 to 25 g. […] was determined by observing the mortality for seven days after the administration.

[2] = ip, 20 min before anesthetization, lysine-vasopressin 0.3 I.U./kg iv, MED = minimum dose with depression rate of 20% or higher, read-out: Coronary vasoconstriction model MED i.p.
[3] = po, 30 min before anesthetization, lysine-vasopressin 0.3 I.U./kg iv, MED = minimum dose with depression rate of 20% or higher, read-out: Coronary vasoconstriction model MED p.o.

Compound	minimal effective dose [1, 2]	minimal effective dose [1, 3]	MLD i.p. (male dd-mice)	MLD p.o. (male dd-mice)	minimal effective dose ([1]; ip, read-out: Coronary vasoconstriction model MED i.p.)	minimal effective dose ([1]; po, read-out: Coronary vasoconstriction model MED p.o.)
O=[N+]([O-])O[C@H]1CO[C@H]2[C@@H]1OC[C@@H]2N1CCN(CCCSc2ccccc2)CC1 [Compound 1, 5-Deoxy-5-[4-(3-phenylthiopropyl)piperazin-1-yl]-1.4;3.6-dianhydro-L-iditol2-nitrate hydrochloride]	< 25 mg/kg	< 30 mg/kg	> 100 mg/kg	> 150 mg/kg	–	–
O=[N+]([O-])O[C@@H]1CO[C@H]2[C@@H]1OC[C@@H]2N1CCN(CCCSc2ccccc2)CC1 [Compound 96, 2-Deoxy-2-[4-(3-phenylthiopropyl)piperazin-1-yl]-1.4;3.6-dianhydro-D-glucitol 5-nitrate hydrochloride]	< 25 mg/kg	–	> 100 mg/kg	> 300 mg/kg	–	–
O=C(c1cccnc1)N1CCN([C@H]2CO[C@H]3[C@@H]2OC[C@@H]3O)CC1 [Compound 117, 5-Deoxy-5-[4-(pyridin-3-yl)carbonylpiperazin-1-yl]-1.4;3.6-dianhydro-L-iditol]	–	–	–	–	< 25 mg/kg	< 30 mg/kg
O=C(c1ccccn1)N1CCN([C@H]2CO[C@H]3[C@@H]2OC[C@@H]3O[N+](=O)[O-])CC1 [Compound 81, 5-Deoxy-5-[4-(pyridin-2-yl)carbonylpiperazin-1-yl]-1.4;3.6-dianhydro-L-iditol 2-nitrate hydrochloride]	–	< 30 mg/kg	> 100 mg/kg	> 300 mg/kg	–	–
O=[N+]([O-])O[C@H]1CO[C@H]2[C@@H]1OC[C@@H]2N1CCN(CCCn2ccnc2)CC1 [Compound 21, 5-Deoxy-5-[4-[3-(imidazol-1-yl)propyl]piperazin-1-yl]-1.4;3.6-dianhydro-L-iditol 2-nitrate hydrochloride]	–	< 30 mg/kg	> 100 mg/kg	> 300 mg/kg	–	–
O=[N+]([O-])O[C@H]1CO[C@H]2[C@@H]1OC[C@@H]2N1CCN(CCCn2cnc3ccccc32)CC1 [Compound 22, 5-[4-[3-(Benzimidazol-1-yl)propyl]piperazin-1-yl]-5-deoxy-1.4;3.6-dianhydro-L-iditol 2-nitrate hydrochloride]	< 25 mg/kg	< 30 mg/kg	> 100 mg/kg	> 300 mg/kg	–	–
O=C(c1ccoc1)N1CCN([C@H]2CO[C@H]3[C@@H]2OC[C@@H]3O[N+](=O)[O-])CC1 [Compound 112, 5-Deoxy-5-[4-(furan-3-yl)carbonylpiperazin-1-yl]-1.4;3.6-dianhydro-L-iditol2-nitrate hydrochloride]	–	< 30 mg/kg	> 100 mg/kg	> 300 mg/kg	–	–
O=[N+]([O-])O[C@H]1CO[C@H]2[C@@H]1OC[C@@H]2N1CCN(c2nc3ccccc3[nH]2)CC1 [Compound 76, 5-[4-(Benzimidazol-2-yl)piperazin-1-yl]-5-deoxy-1.4;3.6-dianhydro-L-iditol 2-nitrate hydrochloride]	–	< 30 mg/kg	> 100 mg/kg	> 300 mg/kg	–	–
O=[N+]([O-])O[C@H]1CO[C@H]2[C@@H]1OC[C@@H]2N1CCN(CCCSc2ccncc2)CC1 [Compound 12, 5-Deoxy-5-[4-[3-(pyridin-4-ylthio)propyl]piperazin-1-yl]-1.4;3.6-dianhydro-L-iditol 2-nitrate hydrochloride]	–	< 30 mg/kg	> 100 mg/kg	> 300 mg/kg	–	–
O=C(c1ccccc1)N1CCN([C@H]2CO[C@H]3[C@@H]2OC[C@@H]3O[N+](=O)[O-])CC1 [Compound 84, 5-(4-Benzoylpiperazin-1-yl)-5-deoxy-1.4;3.6-dianhydro-L-iditol 2-nitrate hydrochloride]	< 25 mg/kg	–	> 100 mg/kg	> 300 mg/kg	–	–
COc1cc2nc(N3CCN([C@H]4CO[C@H]5[C@@H]4OC[C@@H]5O[N+](=O)[O-])CC3)nc(N)c2cc1OC [Compound 78, 5-[4-(4-Amino-6,7-dimethoxyquinazolin-2-yl)piperazin-1-yl]-5-deoxy-1.4;3.6-dianhydro-L-iditol 2-nitrate hydrochloride]	–	< 30 mg/kg	> 100 mg/kg	> 300 mg/kg	–	–
O=C(c1ccc(Cl)nc1)N1CCN([C@H]2CO[C@H]3[C@@H]2OC[C@@H]3O[N+](=O)[O-])CC1 [Compound 89, 5-[4-(6-Chloropyridin-3-yl)carbonylpiperazin-1-yl]-5-deoxy-1.4;3.6-dianhydro-L-iditol 2-nitrate hydrochloride]	–	< 30 mg/kg	> 100 mg/kg	> 300 mg/kg	–	–
O[C@H]1CO[C@H]2[C@@H]1OC[C@@H]2N1CCN(CCCOc2ccccc2)CC1 [Compound 102, 5-Deoxy-5-[4-(3-phenoxypropyl)piperazin-1-yl]-1.4;3.6-dianhydro-L-iditol hydrochloride]	< 25 mg/kg	< 30 mg/kg	> 100 mg/kg	> 300 mg/kg	–	–
O=C(O)Cc1ccc(SCCCN2CCN([C@H]3CO[C@H]4[C@@H]3OC[C@@H]4O[N+](=O)[O-])CC2)cc1 [Compound 16, 5-[4-[3-(4-Carboxymethylphenylthio)propyl]piperazin-1-yl]-5-deoxy-1.4;3.6-dianhydro-L-iditol 2-nitrate]	–	< 30 mg/kg	> 100 mg/kg	> 300 mg/kg	–	–
Cc1cc2ncn(CCCN3CCN([C@H]4CO[C@H]5[C@@H]4OC[C@@H]5O[N+](=O)[O-])CC3)c2cc1C [Compound 23, 5-Deoxy-5-[4-[3-(5,6-dimethylbenzimidazol-1-yl)propyl]-piperazin-1-yl]-1.4;3.6-dianhydro-L-iditol 2-nitrate hydrochloride]	–	< 30 mg/kg	> 100 mg/kg	> 300 mg/kg	–	–
O=[N+]([O-])O[C@H]1CO[C@H]2[C@@H]1OC[C@@H]2N1CCN(c2nc3ccccc3s2)CC1 [Compound 58, 5-[4-(Benzothiazol-2-yl)piperazin-1-yl]-5-deoxy-1.4;3.6-dianhydro-L-iditol 2-nitrate hydrochloride]	< 25 mg/kg	–	> 100 mg/kg	> 300 mg/kg	–	–
O=C(NCCO[N+](=O)[O-])c1cccnc1 [Nicorandil, reference compound]	< 30 mg/kg	–	–	–	–	–
O=C(c1cccs1)N1CCN([C@H]2CO[C@H]3[C@@H]2OC[C@@H]3O[N+](=O)[O-])CC1 [Compound 111, 5-Deoxy-5-[4-(thiophen-2-yl)carbonylpiperazin-1-yl]-1.4;3.6-dianhydro-L-iditol 2-nitrate hydrochloride]	–	< 30 mg/kg	> 100 mg/kg	> 300 mg/kg	–	–
O=[N+]([O-])O[C@H]1CO[C@H]2[C@@H]1OC[C@@H]2N1CCN(c2nnnn2-c2ccccc2)CC1 [Compound 60, 5-Deoxy-5-[4-(1-phenyl-1H-tetrazol-5-yl)piperazin-1-yl-]-1.4;3.6-dianhydro-L-iditol 2-nitrate hydrochloride]	< 25 mg/kg	–	> 100 mg/kg	> 300 mg/kg	–	–
Cc1ccc(C(=O)N2CCN([C@H]3CO[C@H]4[C@@H]3OC[C@@H]4O[N+](=O)[O-])CC2)cn1 [Compound 93, 5-Deoxy-5-[4-(6-methylpyridin-3-yl)carbonylpiperazin-1-yl]-1.4;3.6-dianhydro-L-iditol 2-nitrate hydrochloride]	–	< 30 mg/kg	> 100 mg/kg	> 300 mg/kg	–	–
O=C(c1cccnc1)N1CCN([C@H]2CO[C@H]3[C@@H]2OC[C@@H]3O[N+](=O)[O-])CC1 [Compound 80]	< 25 mg/kg	< 30 mg/kg	> 100 mg/kg	> 300 mg/kg	–	–
O=[N+]([O-])O[C@H]1CO[C@H]2[C@@H]1OC[C@@H]2N1CCN(CCCn2cc3ccccc3n2)CC1 [Compound 31, 5-Deoxy-5-[4-[3-(indazol-2-yl)propyl]piperazin-1-yl]-1.4; 3.6-dianhydro-L-iditol 2-nitrate hydrochloride]	< 25 mg/kg	–	> 100 mg/kg	> 300 mg/kg	–	–
O=C(c1ccco1)N1CCN([C@H]2CO[C@H]3[C@@H]2OC[C@@H]3O[N+](=O)[O-])CC1 [Compound 83, 5-Deoxy-5-[4-(furan-2-yl)carbonylpiperazin-1-yl]-1.4;3.6-dianhydro-L-iditol2-nitrate hydrochloride]	–	< 30 mg/kg	> 100 mg/kg	> 300 mg/kg	–	–
O=[N+]([O-])O[C@H]1CO[C@H]2[C@@H]1OC[C@@H]2N1CCN(CCCn2ccc3ccccc32)CC1 [Compound 27, 5-Deoxy-5-[4-[3-(indol-1-yl)propyl]piperazin-1-yl]-1.4;3.6-dianhydro-L-iditol 2-nitrate hydrochloride]	–	< 30 mg/kg	> 100 mg/kg	> 300 mg/kg	–	–
COc1ccc(C(=O)N2CCN([C@H]3CO[C@H]4[C@@H]3OC[C@@H]4O[N+](=O)[O-])CC2)c(OC)c1OC [Compound 87, 5-Deoxy-5-[4-(2,3,4-trimethoxybenzoyl)piperazin-1-yl]-1.4;3.6-dianhydro-L-iditol 2-nitratehydrochloride]	–	< 30 mg/kg	> 100 mg/kg	> 300 mg/kg	–	–
O=C(c1ccc(O)nc1)N1CCN([C@H]2CO[C@H]3[C@@H]2OC[C@@H]3O[N+](=O)[O-])CC1 [Compound 114, 5-Deoxy-5-[4-(6-hydroxypyridin-3-yl)carbonylpiperazin-1-yl]-1.4;3.6-dianhydro-L-iditol 2-nitrate hydrochloride]	–	< 30 mg/kg	> 100 mg/kg	> 300 mg/kg	–	–
